This note sets out measurements from US7309712B2, “1H-pyrazoles useful in therapy” (Pfizer Limited, priority 2005, dated 2007).

One may read the melting point as the temperature of the solid-liquid transition. For orientation: IC50 means the concentration at which inhibition is half-maximal. Read a low IC50 as greater potency.

Tested on in the first series: not given
Test: not given
Conditions: not given
With `Cc1cc(Oc2c(C3CC3)nn(CS(C)(=O)=O)c2C2CC2)ccc1C#N` [Example 2, 4-(3,5-dicyclopropyl-1-methanesulfonylmethyl-1H-pyrazol-4-yloxy)-2-methyl-benzonitrile], the melting point was in the range of 140.7 to 141.3 °C. Same read-out and setting: for `CS(=O)(=O)Cn1nc(C2CC2)c(Oc2ccc(C#N)cc2)c1C1CC1` [Example 1, 4-(3,5-Dicyclopropyl-1-methanesulfonylmethyl-1H-pyrazol-4-yloxy)-benzonitrile] the value was 141.5 to 142.5 °C.

Another series concerns the target T1, Progesterone Receptor (PR) (Homo sapiens, UniProt P06401).
T1 construct: endogenous in cells; host or cells: T47D human breast mammary carcinoma cells
T1 sequence (P06401 1-933): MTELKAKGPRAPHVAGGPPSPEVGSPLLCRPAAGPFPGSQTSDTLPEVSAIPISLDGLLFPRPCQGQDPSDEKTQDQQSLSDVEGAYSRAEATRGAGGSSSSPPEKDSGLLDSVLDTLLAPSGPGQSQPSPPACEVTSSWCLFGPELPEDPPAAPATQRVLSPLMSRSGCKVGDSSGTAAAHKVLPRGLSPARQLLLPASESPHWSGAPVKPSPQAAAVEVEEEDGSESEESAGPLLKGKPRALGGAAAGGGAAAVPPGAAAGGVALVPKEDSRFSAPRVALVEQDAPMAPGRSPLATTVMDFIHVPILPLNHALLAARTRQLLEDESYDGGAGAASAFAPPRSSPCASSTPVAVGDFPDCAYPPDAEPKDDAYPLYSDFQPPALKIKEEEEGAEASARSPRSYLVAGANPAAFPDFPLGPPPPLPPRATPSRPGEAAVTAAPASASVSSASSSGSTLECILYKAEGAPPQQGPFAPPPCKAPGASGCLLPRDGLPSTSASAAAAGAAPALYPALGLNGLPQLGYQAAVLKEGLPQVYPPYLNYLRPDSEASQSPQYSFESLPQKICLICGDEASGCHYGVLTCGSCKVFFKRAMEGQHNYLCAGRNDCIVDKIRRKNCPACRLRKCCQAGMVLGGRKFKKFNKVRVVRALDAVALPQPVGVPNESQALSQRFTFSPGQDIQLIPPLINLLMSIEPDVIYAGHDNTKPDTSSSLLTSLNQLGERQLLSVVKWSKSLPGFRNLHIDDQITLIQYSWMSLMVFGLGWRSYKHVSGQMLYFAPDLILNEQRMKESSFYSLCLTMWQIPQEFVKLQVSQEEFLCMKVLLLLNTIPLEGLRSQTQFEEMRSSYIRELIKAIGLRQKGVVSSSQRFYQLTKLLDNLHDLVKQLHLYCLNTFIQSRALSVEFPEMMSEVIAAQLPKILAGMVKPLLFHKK
Nature of the series: In vitro functional assay for progesterone receptor (PR) antagonism: inhibition of progesterone-induced alkaline phosphatase expression in T47D cells (Screen 1.0). In kind it is cell-based. The following applies: antagonist format (5 nM P4), alkaline phosphatase inhibition in T47D human mammary carcinoma cells. An excerpt: 1.0 In Vitro Functional Assay for Progesterone Receptor (PR) Antagonism
The assay for PR antagonism takes advantage of the extensively reported modulation of alkaline phosphatase (AP) expression in human breast T47D mammary carcinoma cells {Beck, et al., (1993). The progesterone antagonist RU486 acquires agonist activity upon stimulation of cAMP signalling pathways. Proc. Natl. Acad. Sci., USA, 90, 4441-4445; Fensome, et al. (2002). New progesterone receptor antagonists: 3,3-disubstituted-5-aryloxindoles. Bioorg. Med. Chem. Lett., 12, 3487-3490; Zhang et al., (2002a). 6-Aryl-1,4-dihydro-benzo d 1,3 oxazin-2-ones: a novel class of potent, selective, and orally active nonsteroidal progesterone receptor antagonists. J. Med. Chem., 45, 4379-4382; Zhang et al., (2003). Novel 6-aryl-1,4-dihydrobenzo[d]oxazine-2-thiones as potent, selective, and orally active nonsteroidal progesterone receptor agonists. Bioorganic & Med. Chem. Lett., 13, 1313-1316; Zhang et al., (2002b). Potent nonsteroidal progesterone receptor agonists: synthesis and SAR study of 6-aryl benzoxazines. Bioorganic & Med. Chem. Lett., 12, 787-790; Zhang, et al., (2000). In vitro characterization of trimegestone: a new potent and selective progestin. Steroids 65, 637-643}. […] In the absence of progesterone any agonist activity is also observed as an induction of AP activity. By running the assay in two formats (±progesterone (P4)), compounds behaving as PR antagonists, agonists or partials can be identified.
The materials required to grow T47D cells and perform the progesterone-induced AP assay are outlined in Table 1.
Assay media (agonist format): DMEM without phenol red+5% CS-FCS+2 mM Glutamax. Assay media (antagonist format): DMEM without phenol red+5% CS-FCS+2 mM Glutamax+10 nM P4.
Briefly, T47D cells are grown by propagating in DMEM+10% FBS+2 mM Glutamax at 37° C./5% CO2. At 80-90% confluence, the media is exchanged for phenol red free DMEM+5% CS-FCS (Assay media) and cultured for a further 24 hrs at 37° C./5% CO2. T47D cells are then plated at 2.5×10^4 cells/well in 100 μL assay media in sufficient 96 well plates for the assay, in triplicates of each condition. For example, for a 5-point IC50 curve on one compound, this is equivalent to […]. These plates are then cultured for 24 hrs at 37° C./5% CO2, leaving the outside wells blank by the addition of 200 μL PBS.
A 10 mM stock solution of compounds is prepared in DMSO (stored −20° C. in 10 μL aliquots). A 10 mM DMSO stock of RU486 is used as a standard pure PR antagonist. The compounds under investigation are added to assay medium, or a mixture of 0.05% pluronic acid in PBS, ±10 nM P4 to give a final concentration of 20 μM (i.e. 10 μL of the 10 mM stock to […] assay medium ±10 nM P4). The samples are mixed thoroughly and serial dilutions of compounds from 10 µM to 0.1 nM in a 96 well plate, are prepared as follows:
The outside wells are left blank. Assay medium (225 μL) is added to one half of the plate (−P4), rows 3-8, and to the other half of the plate, assay medium +10 nM P4. To row 2, 250 μL of the top concentration of compound (20 μM±10 nM P4) is added. 25 μL of the […] stock from row 2 is removed and added to the 225 μL of assay medium±10 nM P4 in row 3 and thoroughly mixed. This process is repeated down the plate to row 7 to achieve serial dilutions. The vehicle control is adjusted to contain 0.1% DMSO (i.e. 20 μL to 10 mL assay medium±10 nM P4 to give a concentration of 0.2% DMSO, add 250 μL to row 8).
100 μL of reagent from the dilution plates are transferred into the corresponding wells containing T47D cells assay medium, to give a final concentration of 10 μM to 0.1 nM compound (5 nM P4 antagonist format). The cells were incubated for 20 hrs at 37° C./5% CO2., then media is removed, cells washed with PBS (200 μL) and lysed by placing the cells at −80° C. for 15 min and thawing at room temp. The freeze-thaw lysis is repeated, then PBS (50 μL) is added to each well. […]
The compound `Cc1cc(Oc2c(C3CC3)nn(CS(C)(=O)=O)c2C)cc(C)c1C#N` [Example 19, 4-(3-cyclopropyl-1-methanesulfonylmethyl-5-methyl-1H-pyrazol-4-yloxy)-2,6-dimethyl-benzonitrile] came in with an IC50 of 0.007 µM. Same read-out and setting: the value for `Cc1cc(Oc2c(C3CC3)nn(CS(C)(=O)=O)c2C2CC2)cc(C)c1C#N` [Example 3, 4-(3,5-dicyclopropyl-1-methanesulfonylmethyl-1H-pyrazol-4-yloxy)-2,6-dimethyl-benzonitrile] was 0.008 µM; that for `CCc1nn(CS(C)(=O)=O)c(CC)c1Oc1cc(C)c(C#N)c(C)c1` [Example 23, 4-(3,5-diethyl-1-methanesulfonylmethyl-1H-pyrazol-4-yloxy)-2,6-dimethyl-benzonitrile] was 0.006 µM; that for `Cc1cc(Oc2c(C)nn(CS(C)(=O)=O)c2C2CC2)cc(C)c1C#N` [Example 20, 4-(5-cyclopropyl-1-methanesulfonylmethyl-3-methyl-1H-pyrazol-4-yloxy)-2,6-dimethyl-benzonitrile] was 0.015 µM.

The compound `Cc1cc(Oc2c(C3CC3)nn(CS(C)(=O)=O)c2C)ccc1C#N` [Example 17, 4-(3-cyclopropyl-1-methanesulfonylmethyl-5-methyl-1H-pyrazol-4-yloxy)-2-methyl-benzonitrile] displayed an IC50 of 0.022 µM. On the same count and under the same terms, for `CS(=O)(=O)Cn1nc(C2CC2)c(Oc2ccc(C#N)c(F)c2)c1C1CC1` [Example 5, 4-(3,5-dicyclopropyl-1-methanesulfonylmethyl-1H-pyrazol-4-yloxy)-2-fluoro-benzonitrile] the value was 0.044 µM.
